Reference: patent US7393812B2, “Methylidene mevalonates and their use as herbicides” (Dow AgroSciences LLC, priority 2004, dated 2008)

Tests used:
Assay type in all cases: in vivo
[1] = test system: crabgrass (Digitaria sanguinalis, DIGSA); assay: Post-emergent evaluation; details: after 2 weeks
Description: (§1) Seeds of the desired test plant species were planted in Grace-Sierra MetroMix® 306 planting mixture, which typically has a pH of 6.0 to 6.8 and an organic matter content of about 30 percent, in plastic pots with a surface area of 64 square centimeters. When required to ensure good germination and healthy plants, a fungicide treatment and/or other chemical or physical treatment was applied. The plants were grown for 7-21 days in a greenhouse with an approximate 15 hr photoperiod which was maintained at about 23-29° C. during the day and 22-28° C. during the night. Nutrients and water were added on a regular basis and supplemental lighting was provided with overhead metal halide 1000-Watt lamps as necessary. The plants were employed for testing when they reached the first or second true leaf stage.
(§2) A weighed amount, determined by the highest rate to be tested, of each test compound was placed in a 20 mL glass vial and was dissolved in 4 mL of a 97:3 v/v (volume/volume) mixture of acetone and dimethyl sulfoxide (DMSO) to obtain concentrated stock solutions. […] The concentrated stock solutions obtained were diluted with an aqueous mixture containing acetone, water, isopropyl alcohol, DMSO, Atplus 411F crop oil concentrate, and Triton X-155 surfactant in a 48.5:39:10:1.5:1.0:0.02 v/v ratio to obtain spray solutions of known concentration. The solutions containing the highest concentration to be tested were prepared by diluting 2 mL aliquots of the stock solution with 13 mL of the mixture and lower concentrations were prepared by serial dilution of the stock solution. Approximately 1.5 mL aliquots of each solution of known concentration were sprayed evenly onto each of the test plant pots using a DeVilbiss atomizer driven by compressed air pressure of 2 to 4 psi ([…]) to obtain thorough coverage of each plant. Control plants were sprayed in the same manner with the aqueous mixture. In this test an application rate of 1 ppm results in the application of approximately 1 g/Ha.
(§3) The treated plants and control plants were placed in a greenhouse as described above and watered by sub-irrigation to prevent wash-off of the test compounds. After 2 weeks the condition of the test plants as compared with that of the untreated plants was determined visually and scored on a scale of 0 to 100 percent where 0 corresponds to no injury and 100 corresponds to complete kill. Species abbreviations as described for Table I with the following additions: soybean (Glycine max, GLXMA), rape (Brassica napus, BRSNN), chickweed (Stellaria media, STEME), cocklebur (Xanthium strumarium XANST), lambsquarters (Chenopodium album, CHEAL), violet (Viola tricolor, VIOTR), bindweed (Polygonum convolvulus, POLCO), spurge (Euphorbia heterophylla, EPHHL), Canada thistle (Cirsium arvense, CIRAR), corn (Zea mays, ZEAMX), rice (Oryza sativa, ORYSA), wheat (Triticum aestivum, TRZAS), crabgrass (Digitaria sanguinalis, DIGSA), shattercane (Sorghum vulgare, SORVU) and yellow nutsedge (Cyperus esculentus, CYPES).
(§4) By applying the well-accepted probit analysis as described by J. Berkson in Journal of the American Statistical […], 48, 565 (1953) and by D. Finney in “Probit Analysis” Cambridge University Press (1952), similar data can be used to calculate GR80 values, which are defined as growth reduction factors that correspond to the effective dose of herbicide required to kill or control 80 percent of a target plant. Species abbreviations are as previously defined.

[2] = test system: yellow nutsedge (Cyperus esculentus, CYPES); assay: Post-emergent evaluation; details: after 2 weeks
Description: as §1, §2, §3, §4

[3] = test system: sunflower (Helianthus annus, HELAN); assay: General herbicidal evaluation, preemergence; details: 16 days after treatment
Excerpt: Applications of methylidene mevalonate were made either to the foliage (postemergence) or soil (preemergence). Seeds of sunflower (Helianthus annus, HELAN), morningglory (Ipomoea hederacea, IPOHE) velvetleaf (Abutilon theophrasti, ABUTH), pigweed (Amaranthus spp., AMARE), barnyardgrass (Echinochloa crusgalli, ECHCG), giant foxtail (Setaria faberi, SETFA), wild oats (Avena fatua, AVEFA), and blackgrass (Alopecurus myosuroides, ALOMY) were planted in mineral soil (sandy clay loam, 51% sand, 26% silt, 23% clay, 2.8% O.M., pH 7.8) and Metro-mix (Bulk Sak, Inc., Malvern, Ark., USA) for preemergence and postemergence treatments, respectively. Pots receiving preemergence treatments were watered immediately following application. Prior to postemergence treatment, plants were grown in the greenhouse (16 h photoperiod, 27 C) and thinned to a density of 2 to 15 plants pot^−1, depending on species. At the time of postemergence applications, plants were 8-12 days old, 3 to 10 cm in height, and in the 1- to 3-true-leaf stage. Natural light in the greenhouse was supplemented with metal halide lights that provided an average photosynthetic photon flux of 500 μmol m^−2s^−1.
A sample of sodium methylidene mevalonate was dissolved in 4 mL of distilled water followed by 10 mL of formulation stock “B” (200 mL isopropanol, 20 mL crop oil concentrate, 0.4 g Triton X-155 [Sigma Chemical Co., St. Louis, Mo. 62718], and 78 mL water). This was followed by three 1:1 (v/v) serial dilutions using formulation stock “C” (100 mL isopropanol, 10 mL crop oil concentrate, 0.2 g Triton X-155, 390 mL water, 485 mL acetone and 15 mL DMSO).
Treatments were made at four different doses (4000, 2000, 1000, and 500 g ha^−1). For preemergence treatments, 1.75 mL of spray solution were applied to the soil surface in each pot using a glass Cornwall syringe fitted with a Teejet SS8001E flat-fan nozzle (Spraying Systems Co., Wheaton, Ill. 60189-7900). For postemergence applications, the foliage of the test plants was sprayed using a DeVilbiss atomizer (DeVilbiss Health Car, Inc., Somerset, Pa. 15501) driven by compressed air at a pressure of 22 kPa. Untreated controls were included.
Pots were placed in the greenhouse following compound application. Pots from postemergence and preemergence were sub-irrigated and top-watered, respectively, as needed for the duration of the test. Visual injury ratings were taken 9 and 16 days after treatment for postemergence and preemergence applications, respectively, on a 0 to 100 scale where 0 represents no injury and 100 represents complete necrosis.

GW ave = assay: Post-emergent evaluation, average; details: after 2 weeks
Description: as §1, §2, §3

BW ave = assay: Post-emergent evaluation, average; details: after 2 weeks
Description: as §1, §2, §3

C=C(CO)C(C)(O)CC(=O)O (stereo not drawn) [methylidene mevalonate, 3-hydroxy-4-(hydroxymethyl)-3-methylpent-4-enoic acid]
Postemergent % Control ([1]; spray concentration 125 ppm): 0% | Postemergent % Control ([1]; spray concentration 250 ppm): 10% | Postemergent % Control ([1]; spray concentration 500 ppm): 50% | Postemergent % Control ([1]; spray concentration 1000 ppm): 70% | Postemergent % Control ([1]; spray concentration 2000 ppm): 80% | Postemergent % Control ([2]; spray concentration 125 ppm): 30% | Postemergent % Control ([2]; spray concentration 250 ppm): 70% | Postemergent % Control ([2]; spray concentration 500 ppm): 90% | Postemergent % Control ([2]; spray concentration 1000 ppm): 95% | Postemergent % Control ([2]; spray concentration 2000 ppm): 95% | Visual Injury (%) ([3]; 0.5 kg ha^−1, HELAN): 20% | Visual Injury (%) ([3]; 1.0 kg ha^−1, HELAN): 30% | Visual Injury (%) ([3]; 2.0 kg ha^−1, HELAN): 30% | Visual Injury (%) ([3]; 4.0 kg ha^−1, HELAN): 60% | Postemergent % Control, GW ave (GW ave; spray concentration 125 ppm): 12% | Postemergent % Control, GW ave (GW ave; spray concentration 250 ppm): 39% | Postemergent % Control, GW ave (GW ave; spray concentration 500 ppm): 64% | Postemergent % Control, GW ave (GW ave; spray concentration 1000 ppm): 82% | Postemergent % Control, GW ave (GW ave; spray concentration 2000 ppm): 88% | Postemergent % Control, BW ave (BW ave; spray concentration 125 ppm): 11% | Postemergent % Control, BW ave (BW ave; spray concentration 250 ppm): 15% | Postemergent % Control, BW ave (BW ave; spray concentration 500 ppm): 37% | Postemergent % Control, BW ave (BW ave; spray concentration 1000 ppm): 54% | Postemergent % Control, BW ave (BW ave; spray concentration 2000 ppm): 63%
